Data as given in patent publication US20220153732A1, “PROTEIN SECRETION INHIBITORS” (KEZAR LIFE SCIENCES, priority 2019, published 2022).
Like-named read-outs stand apart in the source and are kept apart here.

Tests used:
Format in all cases: cell-based
[1] = test system: human multiple myeloma cell line U266B1; assay: U266 Cell Viability Assay; details: U-266, 48 hr, U266B1 cells, Celltiter-Glo, read-out: 48 hr U266 Viability Celltiter-Glo: Mean EC50
How it was run: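 Viability measured by CellTiter-Glo luciferase signal after 48 h compound exposure (37 °C, 5% CO2) of U266B1 cells in 384-well format. Where stereochemistry is not shown, data refer to the stereoisomer mixture.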

[2] = test system: TNFα-FL/Gaussia Luciferase; assay: Dox Induced TNFα-FL-Gluc Assay
How it was run: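 Compounds were added in doxycycline-containing DMSO/media to cells plated the previous day and incubated at 37° C under 5% CO2. These cells stably express a TNFα-FL/Gaussia luciferase cDNA whose expression is under T-REx (Dox-inducible) control, selected with Hygromycin and Blasticidin.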

[3] = test system: HER3-ss+4aa/Gaussia Luciferase; assay: Dox-Induced Her3-ss-Gluc Assay
How it was run: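 Compounds, diluted in DMSO/media containing doxycycline, were incubated at 37° C., 5% CO2 with cells seeded one day earlier. The cells stably express HER3-ss+4aa/Gaussia luciferase under T-REx control. Where no stereochemistry is shown, data refer to the mixture of stereoisomers.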

[4] = test system: PD1-ss+10aa/Gaussia Luciferase; assay: Dox-Induced PD1-ss-Gluc Assay
How it was run: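 Compounds, diluted in DMSO/media with doxycycline, were added to cells plated a day earlier and kept at 37° C under 5% CO2. The cells stably express a Gaussia luciferase construct fused to PD1-ss+10aa, induced via the T-REx system. Unassigned stereochemistry means mixture data.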

[5] = test system: IL-2-FL/Gaussia Luciferase; assay: Dox Induced IL2-FL-Gluc Assay
How it was run: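 Compounds were added together with doxycycline in DMSO/media and incubated at 37° C., 5% CO2. The cells were a stably selected line carrying IL-2-FL/Gaussia luciferase under T-REx inducible control. Structures drawn without stereochemistry were tested as stereoisomer mixtures.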

[6] = test system: human multiple myeloma cell line NCI-H929; assay: H929 Cell Viability Assay; details: 48 hr, NCI-H929 cells, Celltiter-Glo, read-out: 48 hr H929 Viability Celltiter-Glo: Mean EC50
Experimental: Plates were incubated at 37° C., 5% CO2 for 48 hours. After 48 hours, Celltiter-Glo® (Promega) was added to each well and luciferase signal was quantified using Tecan Infinite M1000 Pro for cell viability determination.
For chemical structures that include one or more stereoisomers, but are illustrated without indicating stereochemistry, the assay data refers to a mixture of stereoisomers.

[7] = 24 hr doxycycline induction, 293FRT/TO cells, Gaussia luciferase signal; read-out: 24 hr Dox Inducible TNFaFLGluc 293FRT/TO: Mean IC50
[8] = 24 hr doxycycline induction, 293FRT/TO cells, Gaussia luciferase signal; read-out: 24 hr Dox Inducible Her3(ss + 4)Gluc 293FRT/TO: Mean IC50
[9] = 24 hr doxycycline induction, 293FRT/TO cells, Gaussia luciferase signal; read-out: 24 hr Dox Inducible PD1ssGluc 293FRT/TO: Mean IC50
[10] = 24 hr doxycycline induction, 293FRT/TO cells, Gaussia luciferase signal; read-out: 24 hr Dox Inducible IL2FLGIuc 293FRT/TO: Mean IC50
[11] = 24 hr, doxycycline-induced, 293FRT/TO cells; read-out: 24 hr Dox Inducible TNFaFLGluc 293FRT/TO: Mean IC50
[12] = 24 hr, doxycycline-induced, 293FRT/TO cells; read-out: 24 hr Dox Inducible Her3(ss + 4)Gluc 293FRT/TO: Mean IC50
[13] = 24 hr, doxycycline-induced, 293FRT/TO cells; read-out: 24 hr Dox Inducible PD1ssGluc 293FRT/TO: Mean IC50
[14] = 24 hr, doxycycline-induced, 293FRT/TO cells; read-out: 24 hr Dox Inducible IL2FLGIuc 293FRT/TO: Mean IC50

Structure (SMILES) | EC50 [1] [µM] | IC50 [2, 7] [µM] | IC50 [3, 8] [µM] | IC50 [4, 9] [µM] | IC50 [5, 10] [µM] | EC50 [6] [µM] | IC50 [2, 11] [µM] | IC50 [3, 12] [µM] | IC50 [4, 13] [µM] | IC50 [5, 14] [µM] | IC50 ([2]; read-out: 24 hr Dox Inducible TNFaFLGluc 293FRT/TO: Mean IC50; 24 hr, doxycycline-induced, 293FRT/TO cells) [µM] | IC50 ([3]; read-out: 24 hr Dox Inducible Her3(ss + 4)Gluc 293FRT/TO: Mean IC50; 24 hr, doxycycline-induced, 293FRT/TO cells) [µM] | IC50 ([4]; read-out: 24 hr Dox Inducible PD1ssGluc 293FRT/TO: Mean IC50; 24 hr, doxycycline-induced, 293FRT/TO cells) [µM] | IC50 ([5]; read-out: 24 hr Dox Inducible IL2FLGIuc 293FRT/TO: Mean IC50; 24 hr, doxycycline-induced, 293FRT/TO cells) [µM]
O=C(Nc1nc(C2Cc3ccccc3C2)cs1)c1cccn1CCCc1ccncc1 [Compound A284] | 6.1 | 4.07 | 1.24 | 0.767 | 2.32 | 4.92 |  |  |  |  |  |  |  | 
O=C(Nc1nc(C2CCN(c3ccccc3)CC2)cs1)c1cccn1CCCc1ccncc1 [Compound A285] | 16.7 | 16.1 | 1.84 | 1.23 | 2.86 | 17.8 |  |  |  |  |  |  |  | 
O=C(Nc1nc(C2CCc3ccccc3O2)cs1)c1cccn1CCCc1ccncc1 (stereo not drawn) [Compound A286] | 15.7 | 6.17 | 2.42 | 1.28 | 3.93 | 9.57 |  |  |  |  |  |  |  | 
O=C(Nc1nc(C2CC(c3ccccc3)C2)cs1)c1cccn1CCCc1ccncc1 (stereo not drawn) [Compound A287] | > 25 | 1.16 | 0.181 | 0.088 | 0.376 | 5.06 |  |  |  |  |  |  |  | 
O=C(Nc1nc(C2Cc3ccccc3O2)cs1)c1cccn1Cc1ccncc1 (stereo not drawn) [Compound A288] | > 25 | 3.03 | 1.26 | 0.44 | 1.54 | 23.9 |  |  |  |  |  |  |  | 
O=C(Nc1nc([C@@H]2CCN(c3ccccc3)C2)cs1)c1cccn1Cc1ccncc1 [Compound A289] | > 25 | 3.61 | 0.512 | 0.201 | 0.856 | 22 |  |  |  |  |  |  |  | 
O=C(Nc1nc([C@H]2CCN(c3ccccc3)C2)cs1)c1cccn1Cc1ccncc1 [Compound A290] | 20.8 | 4.02 | 0.648 | 0.261 | 1.4 | 15.2 |  |  |  |  |  |  |  | 
O=C(Nc1nc([C@@H]2CCN(Cc3ccccc3)C2)cs1)c1cccn1Cc1ccncc1 [Compound A291] | 22.5 | > 25 | 5.28 | 0.918 | 6.72 | > 25 |  |  |  |  |  |  |  | 
CC(C)(/C=C/c1ccccc1)c1csc(NC(=O)c2cccn2Cc2ccncc2)n1 [Compound A293, N-(4-(2-methyl-4-phenylbut-3-en-2-yl)thiazol-2-yl)-1-(pyridin-4-ylmethyl)-1H-pyrrole-2-carboxamide] | > 25 |  |  |  |  | 11.4 | 3.65 | 0.632 | 0.367 | 0.619 |  |  |  | 
O=C(Nc1nc(C2=CC(c3ccccc3)CCC2)cs1)c1cccn1Cc1ccncc1 (stereo not drawn) [Compound A294] | > 25 |  |  |  |  | > 25 | 4.44 | 1.05 | 0.499 | 0.939 |  |  |  | 
O=C(Nc1nc(C2CCC(c3ccccc3)O2)cs1)c1cccn1Cc1ccncc1 (stereo not drawn) [Compound A310, N-(4-(5-phenyltetrahydrofuran-2-yl)thiazol-2-yl)-1-(pyridin-4-ylmethyl)-1H-pyrrole-2-carboxamide] | > 25 |  |  |  |  | > 25 |  |  |  |  | 24.6 | 5.44 | 2.12 | 6.99

More lines, main results first:

EC50 [1] [µM] | IC50 [2, 7] [µM] | IC50 [3, 8] [µM] | IC50 [4, 9] [µM] | IC50 [5, 10] [µM] | EC50 [6] [µM] | IC50 [2, 11] [µM] | IC50 [3, 12] [µM] | IC50 [4, 13] [µM] | IC50 [5, 14] [µM] | Structure (SMILES) | IC50 ([2]; read-out: 24 hr Dox Inducible TNFaFLGluc 293FRT/TO: Mean IC50; 24 hr, doxycycline-induced, 293FRT/TO cells) [µM] | IC50 ([3]; read-out: 24 hr Dox Inducible Her3(ss + 4)Gluc 293FRT/TO: Mean IC50; 24 hr, doxycycline-induced, 293FRT/TO cells) [µM] | IC50 ([4]; read-out: 24 hr Dox Inducible PD1ssGluc 293FRT/TO: Mean IC50; 24 hr, doxycycline-induced, 293FRT/TO cells) [µM] | IC50 ([5]; read-out: 24 hr Dox Inducible IL2FLGIuc 293FRT/TO: Mean IC50; 24 hr, doxycycline-induced, 293FRT/TO cells) [µM]
18.9 |  |  |  |  | 18.3 | 3.56 | 0.692 | 0.005 | 0.846 | O=C(Nc1nc(/C=C/c2ncc(OC3CCCC3)cc2F)cs1)c1cccn1Cc1ccncc1 [Compound A295] |  |  |  | 
> 25 |  |  |  |  | > 25 | 10.3 | 1.21 | 0.655 | 1.15 | O=C(Nc1nc(C2COc3ccccc3C2)cs1)c1cccn1Cc1ccncc1 (stereo not drawn) [Compound A296] |  |  |  | 
> 25 |  |  |  |  | > 25 | 2.82 | 0.251 | 0.066 | 0.687 | Cc1sc(NC(=O)c2cccn2Cc2ccncc2)nc1/C=C/c1ccccc1 [Compound A297] |  |  |  | 
> 25 |  |  |  |  | 13.5 | 1.67 | 0.482 | 0.26 | 0.45 | O=C(Nc1nc([C@@H]2CCCC[C@@H]2c2ccccc2)cs1)c1cccn1Cc1ccncc1 [Compound A298] |  |  |  | 
> 25 |  |  |  |  | > 25 | > 25 | 0.214 | 0.007 | 0.219 | COc1cnc(/C=C/c2csc(NC(=O)c3cccn3Cc3ccncc3)n2)c(F)c1 [Compound A299] |  |  |  | 
> 25 |  |  |  |  | 10.5 | 2.42 | 0.589 | 0.328 | 0.45 | O=C(Nc1nc([C@H]2CCC[C@@H]2c2ccccc2)cs1)c1cccn1Cc1ccncc1 [Compound A300, N-(4-((1S,2S)-2-phenylcyclopentyl)thiazol-2-yl)-1-(pyridin-4-ylmethyl)-1H-pyrrole-2-carboxamide] |  |  |  | 
> 25 |  |  |  |  | 2.77 | 0.242 | 0.054 | 0.043 | 0.064 | O=C(Nc1nc([C@H]2CCC[C@H]2c2ccccc2)cs1)c1cccn1Cc1ccncc1 [Compound A301, N-(4-((1S,2R)-2-phenylcyclopentyl)thiazol-2-yl)-1-(pyridin-4-ylmethyl)-1H-pyrrole-2-carboxamide] |  |  |  | 
> 25 |  |  |  |  | > 25 | > 25 | 6.17 | 1.98 | 10.6 | O=C(Nc1nc(C2CCN(Cc3ccccc3)CC2)cs1)c1cccn1Cc1ccncc1 [Compound A302] |  |  |  | 
14.3 |  |  |  |  | 6.27 | 0.236 | 0.108 | 0.02 | 0.178 | O=C(Nc1nc(/C=C/c2ccc(OC3CC3)cc2F)cs1)c1cccn1Cc1ccncc1 [Compound A304] |  |  |  | 
> 25 |  |  |  |  | 11.2 | 1.79 | 0.495 | 0.184 | 0.489 | O=C(Nc1nc(C2CCCN(c3ccccc3)C2)cs1)c1cccn1Cc1ccncc1 (stereo not drawn) [Compound A306, N-(4-(1-phenylpiperidin-3-yl)thiazol-2-yl)-1-(pyridin-4-ylmethyl)-1H-pyrrole-2-carboxamide] |  |  |  | 
> 25 |  |  |  |  | > 25 | > 25 | 8.81 | 0.679 | > 25 | O=C(Nc1nc(/C=C/c2ncccn2)cs1)c1cccn1Cc1ccncc1 [Compound A307] |  |  |  | 
> 25 |  |  |  |  | 17.2 | 13.5 | 1.69 | 0.879 | 2.37 | CC(C)(OCc1ccc(N=[N+]=[N-])cc1)c1csc(NC(=O)c2cccn2Cc2ccncc2C#N)n1 [Compound A308] |  |  |  | 
14.8 |  |  |  |  | 6.11 | 0.721 | 0.071 | 0.024 | 0.199 | COc1ccc(O[C@H]2C[C@@H](c3csc(NC(=O)c4cccn4Cc4ccncc4)n3)C2)nc1 [Compound A309] |  |  |  | 
6.23 |  |  |  |  | 6.02 | 3.33 | 0.51 | 0.175 | 0.874 | COc1ccc([C@@H]2C[C@H]2c2csc(NC(=O)c3cccn3Cc3ccncc3)n2)nc1 [Compound A311] |  |  |  | 
> 25 |  |  |  |  | > 25 | 4.13 | 0.646 | 0.197 | 1.14 | COc1ccc([C@H]2C[C@H]2c2csc(NC(=O)c3cccn3Cc3ccncc3)n2)nc1 [Compound A312] |  |  |  | 
